Results published in EP2805705B1, “Packaging with one or more administration units comprising a sodium salt of (R)-3-[6-amino-pyridin-3-yl]-2-(1-cyclohexyl-1 H-imidazol-4-yl)-propionic acid” (IP Gesellschaft für Management mbH, priority 2013, dated 2014).

Legend:
[1] = type: physicochemical; settings: At 90% RH, 25°C
Procedure: Said crystal Form I according to the invention (samples obtained according to the process of scheme 1) was characterized by several physical methods such as X-ray Powder Diffraction, Differential Scanning Calorimetry, Thenno-Gravimetric Analysis, Water-Activity isotherm measurement, as shown below. X-Ray Powder Diffraction (XRPD): XRPD experiments are carried out on a Braker AXS D8 powder diffractometer using the Bragg-Brentano parafocusing geometry. A thin layer of the product is deposited on a single-crystal silicon wafer, cut out according to Si (510) crystallographic orientation that, by systematic extinction, impedes any Bragg reflection. […] Diagrams are recorded in the following conditions: a 1.5 to 40.0° scan in angle 20, 10 and 100 seconds counting time per degree in 20, according to the amount of powder to be analyzed, and ambient conditions of pressure, temperature and relative humidity. […] Between 1.5 and 5 mg of the product to be analyzed is placed in a semi-open aluminum sample pan. An endo thermic peak is recorded (onset around 104°C). […] A controlled relative humidity is generated by mixing different proportions of dry and water saturated carrier gas streams (monitored by mass flow conti llers). […] From the complete moisture sorption and desorption profile an isotherm is calculated using the DVS Advanced Analysis Suite v3.6. […]

[2] = Chiral stability on storage as a solid at 40 °C and 75 % RH (chiral HPLC); type: physicochemical
Procedure: Example 8: Chiral stability: Representative samples of the crystalline sodium salt of (R)-3-[6-amino-pyridin-3-yl]-2-(1-cyclohexyl-1 H-imidazol-4-yl)-propionic acid sodium salt dihydrate as prepared in Example 3 were stored as a solid under the conditions (A) and (B): (A) 40 °C and 75 % RH 2 weeks; (B) 40 °C and 75 % RH 4 weeks: Results are shown in the following table:
Under the storage conditions the samples remain stable. […] The purity was determined by chiral HPLC on a HPLC system containing a Quaternary HPLC pump (e.g. HP 1100), an auto sampler, an UV absorbance detector (e.g. DAD Agilent Technologies or other adequate HPLC-System) and a computer data acquisition system with suitable software (e.g. Dionex-Chromeleon). A Zorbax SB_CN (4.6 x 100 mm, 3.5 µlτ ? ), column was used as stationary phase and two mobile phases A (975 mL water, 25 mL methanol, 1 mL perchloric acid) and B (975 mL methanol, 25 mL water) were used as mobile phases. The flow rate was set to a value of 1.0 mL/minute and the oven temperature was set to 15°C. Detection was performed by absorbance of the compounds at 236 nm (UV) (bandwidth: 4 nm) and reference wavelength was set to 450 nm (bandwidth: 50 nm). Typical total run times were in the range of about 10 minutes. For sample preparation 20 mg of the substance were accurately weighed into a 10 ml volumetric flask and dissolved and diluted to volume with solvent (acetonitrile/water 90:10 VN). Afterwards 1 ml of this solution was transferred to a 10 mL volumetric flask and then diluted to volume with water. For the HPLC analysis 5 µl of the sample were injected into the system. Gradient used: 0 min (time elapsed) 0% mobile phase B, 1 min 0% mobile phase B, 4 min 53% mobile phase B, 6 min 95% mobile phase B, 7 min 95% mobile phase B, 7.5 min 0% mobile phase B and after 10 min 0% mobile phase B. Enanatiomeric excess was determined by chiral HPLC on a HPLC system containing a Quaternary HPLC pump (e.g. HP 1100), an auto sampler, an UV absorbance detector (e.g. DAD Agilent Technologies or other adequate HPLC-System) and a computer data acquisition system with suitable software (e.g. Dionex-Chromeleon). A Chirobiotic R, Supelco (Astec) (4.6 x 250mm; 5µηη) column was used as stationary phase and a solution of 800 mL water, 1200 mL acetonitrile and 1.0 g ammoniumacetate was used as mobile phase. The flow rate was set to a value of 1.5 mL/minute and the oven temperature was set to 45°C. Detection was performed by absorbance of the compounds at 236 nm (UV) (bandwidth: 8 nm) and reference wavelength was set to 450 nm (bandwidth: 50 nm). Typical total run times were in the range of about 15 minutes. For sample preparation 50 mg of the substance were accurately weighed into a 10 mL volumetric flask and dissolved and diluted to volume with solvent (acetonitrile/water 50:50). For the HPLC analysis 5 µí of the sample were injected into the system. Gradient used: Isograt (15 minutes 100% mobile phase A).
Example 10: Chiral stability; Comparison Experiment: (R)-3-[6-amino-pyridin-3-yl]-2-(1-cyclohexyl-1 H-imidazol-4-yl)-propionic acid as prepared in Example 1 was used for the measurement. Representative samples of the compound (R)-3-[6-amino-pyridin-3-yl]-2-(1-cyclohexyl-1 H-imidazol-4-yl)-propionic acid as prepared in Example 1 were stored as a solid under the conditions (A) and (B) as defined in Example 8.

[3] = Dynamic vapor sorption (DVS), SPS11-10µ, one cycle at 25 °C; type: physicochemical; settings: DVS isotherm at 25 °C
Procedure: (§1) Example 7: Dynamic vapor sorption (DVS) of (R)-3-[6-amino-pyridin-3-yl]-2-(1-cyclohexyl-1 H-imidazol-4-yl)-propionic acid sodium salt monohydrate: Moisture sorption/desorption isotherms were recorded on a SPS11-10µ from Projekt Messtechnik (Ulm, Germany). One cycle was run at 25 °C, in which the sample was first stepwise decreased to 0% RH and then the relative humidity was stepwise increased from 0 to 95% and the weight of the sample was measured. Typical total measurement times for both cycles were about 20 to 30 hours. The measured data for the (R)-3-[6-amino-pyridin-3-yl]-2-(1-cyclohexyl-1 H-imidazol-4-yl)-propionic acid sodium salt monohydrate as prepared in Examples 2 or 3 are shown in the following table: DVS Isotherm at 25 °C:
(§2) Example 12: DVS, Comparison Experiment: (R)-3-[6-amino-pyridin-3-yl]-2-(1-cyclohexyl-1 H-imidazol-4-yl)-propionic acid as prepared in Example 1 was used for the measurement. The measurement was performed as disclosed in Example 7 with (R)-3-[6-amino-pyridin-3-yl]-2-(1-cyclohexyl-1 H-imidazol-4-yl)-propionic acid (free acid, amorphous) and the received data are shown in the following table: DVS Isotherm at 25 °C
as §1, with “(DVS):” for “(DVS) of (R)-3-[6-amino-pyridin-3-yl]-2-(1-cyclohexyl-1 H-imidazol-4-yl)-propionic acid sodium salt monohydrate:”, “Room humidity (RH)” for “RH”, “dihydrate” for “monohydrate”, “Example” for “Examples 2 or”, “isotherm” for “Isotherm”, “25°C:” for “25 °C:”
as §2, with “9:” for “12:”

| SMILES | total water uptake [1] | Enantiomeric excess ([2]; Storage condition (A) 40 °C and 75 % RH 2 weeks, stored as a solid) | Enantiomeric excess ([2]; Storage condition (B) 40 °C and 75 % RH 4 weeks, stored as a solid) | Enantiomeric excess ([2]; at the beginning) | Change In Mass (%) Desorption ([3]; Target RH 0.3 %) | Change In Mass (%) Desorption ([3]; Target RH 10.0 %) | Change In Mass (%) Sorption ([3]; Target RH 10.0 %) | Change In Mass (%) Sorption ([3]; Target RH 20.0 %) | Change In Mass (%) Desorption ([3]; Target RH 20.1 %) | Change In Mass (%) Sorption ([3]; Target RH 30.0 %) | Change In Mass (%) Desorption ([3]; Target RH 30.1 %) | Change In Mass (%) Sorption ([3]; Target RH 40.0 %) | Change In Mass (%) Sorption ([3]; Target RH 50.0 %) | Change In Mass (%) Sorption ([3]; Target RH 60.0 %) | Change In Mass (%) Sorption ([3]; Target RH 70.1 %) | Change In Mass (%) Sorption ([3]; Target RH 75.0 %) | Change In Mass (%) Sorption ([3]; Target RH 80.0 %) | Change In Mass (%) Sorption ([3]; Target RH 85.1 %) | Change In Mass (%) Sorption ([3]; Target RH 90.1 %) | Change In Mass (%) Sorption ([3]; Target RH 94.9 %) |
| --- | --- | --- | --- | --- | --- | --- | --- | --- | --- | --- | --- | --- | --- | --- | --- | --- | --- | --- | --- | --- |
| COc1ccc(/C=C\c2cc(OC)c(OC)c(OC)c2)cc1NC(=O)[C@@H](N)CO [crystal Form I, (2S)-2-amino-3-hydroxy-N-[2-methoxy-2-[(1Z)-2-(3,4,5-trimethoxyphenyl)ethenyl]phenyl] propanamide] | less than 0.15 % (w/w) |  |  |  |  |  |  |  |  |  |  |  |  |  |  |  |  |  |  |  |
| Nc1ccc(C[C@@H](C(=O)[O-])c2cn(C3CCCCC3)cn2)cn1.O.O.[Na+] [(R)-3-[6-amino-pyridin-3-yl]-2-(1-cyclohexyl-1 H-imidazol-4-yl)-propionic acid sodium salt dihydrate] |  | 99.6% | 99.5% | 99.6% | -0.1% | 0.0% | 0.0% | 0.0% | 0.0% | 0.0% | 0.0% | 0.0% | 0.0% | 0.1% | 0.71% | 0.8% | 2.1% | 2.7% | 18.8% | 51.8% |
